Key:
human CD38 = target: T1, human CD38 (Homo sapiens, UniProt P28907); assay: NAD+ cyclase activity assay with human recombinant CD38 protein (ε-NAD fluorescence); assay type: biochemical; conditions: 1.9 nM human CD38, substrate ε-NAD, 30 min preincubation, fluorescence 300/410 nm
T1 construct: purchased Bio-Techne GmbH AVI2404
T1 sequence (P28907 1-300): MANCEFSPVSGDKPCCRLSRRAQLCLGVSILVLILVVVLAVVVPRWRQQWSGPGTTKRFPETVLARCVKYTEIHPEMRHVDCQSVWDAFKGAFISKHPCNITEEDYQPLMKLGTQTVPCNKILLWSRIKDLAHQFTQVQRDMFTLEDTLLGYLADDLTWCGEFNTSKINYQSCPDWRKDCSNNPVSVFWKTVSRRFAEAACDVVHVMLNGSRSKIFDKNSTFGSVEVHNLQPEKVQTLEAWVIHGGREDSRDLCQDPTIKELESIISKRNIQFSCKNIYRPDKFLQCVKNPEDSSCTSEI
In short: (§1)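 Twelve-point threefold compound dilutions were given 30 min at room temperature with 0.6 nM mouse or 1.9 nM human CD38 before […] ε-NAD was added (pH 7.5 HEPES/sucrose/Tween buffer). The rate came from the linear-phase slope of ex 300/em 410 nm fluorescence against vehicle and no-CD38 controls.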

mouse CD38 = target: T2, mouse CD38 (Mus musculus, UniProt P56528); assay: NAD+ cyclase activity assay with mouse recombinant CD38 protein (ε-NAD fluorescence); assay type: biochemical; conditions: 0.6 nM mouse CD38, substrate ε-NAD, 30 min preincubation, fluorescence 300/410 nm
T2 construct: purchased Bio-Techne GmbH 4947-AC
T2 sequence (P56528 1-304): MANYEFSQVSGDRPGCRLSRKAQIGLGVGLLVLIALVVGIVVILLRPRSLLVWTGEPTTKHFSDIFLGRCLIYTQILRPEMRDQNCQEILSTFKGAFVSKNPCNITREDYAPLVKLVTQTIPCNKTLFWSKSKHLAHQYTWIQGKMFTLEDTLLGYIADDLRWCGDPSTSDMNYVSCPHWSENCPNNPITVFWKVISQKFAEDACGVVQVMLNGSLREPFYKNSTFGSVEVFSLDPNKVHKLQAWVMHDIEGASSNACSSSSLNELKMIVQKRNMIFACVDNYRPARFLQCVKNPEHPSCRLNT
In short: as §1

| SMILES | IC50 (human CD38) [nM] | IC50 (mouse CD38) [nM] |
| --- | --- | --- |
| O=C(NC1CC2(COC2)C1)c1cc(F)c2c(c1)-c1cncn1CCO2 [Compound 160A, 8-Fluoro-N-(2-oxaspiro[3.3]heptan-6-yl)-5,6-dihydrobenzo[f]imidazo[1,5-d][1,4]oxazepine-10-carboxamide] | 30 to 100 | 1 to 10 |
| CS(=O)(=O)CCN[C@H]1CC[C@H](NC(=O)c2ccc3c(c2)-c2cncn2CCO3)CC1 [Compound 106A, N-((1r,4r)-4-((2-(Methylsulfonyl)ethyl)amino)cyclohexyl)-5,6-dihydrobenzo[f]imidazo[1,5-d][1,4]oxazepine-10-carboxamide] | 30 to 100 | 1 to 10 |
| O=C(N[C@H]1CCC(F)(F)C1)c1ccc2c(c1)-c1cncn1CCO2 [Compound 93A, (S)—N-(3,3-Difluorocyclopentyl)-5,6-dihydrobenzo[f]imidazo[1,5-d][1,4]oxazepine-10-carboxamide] | < 30 | 1 to 10 |
| CC(C)(F)CN[C@H]1CC[C@H](NC(=O)c2ccc3c(c2)-c2cncn2CCO3)CC1 [Compound 83A, N-((1r,4r)-4-((2-Fluoro-2-methylpropyl)amino)cyclohexyl)-5,6-dihydrobenzo[f]imidazo[1,5-d][1,4]oxazepine-10-carboxamide] | 100 to 1000 | 10 to 100 |
| CC(C)(CO[C@H]1CC[C@@H](NC(=O)c2ccc3c(c2)-c2cncn2CCO3)CC1)C(F)(F)F [Compound 121A, N-((1s,4s)-4-(3,3,3-Trifluoro-2,2-dimethylpropoxy)cyclohexyl)-5,6-dihydrobenzo[f]imidazo[1,5-d][1,4]oxazepine-10-carboxamide] | > 1000 | > 100 |
| O=C(NC1CC(F)(F)C1)c1cc(Cl)c2c(c1)-c1cncn1CCO2 [Compound 134A, 8-Chloro-N-(3,3-difluorocyclobutyl)-5,6-dihydrobenzo[f]imidazo[1,5-d][1,4]oxazepine-10-carboxamide] | < 30 | < 1 |
| C[C@H]1CCCC[C@@H]1NC(=O)c1cc(F)c2c(c1)-c1cncn1CCO2 (relative stereo) [Compound 174A, 8-Fluoro-N-(trans-2-methylcyclohexyl)-5,6-dihydrobenzo[f]imidazo[1,5-d][1,4]oxazepine-10-carboxamide] | < 30 | < 1 |
| CC1(C)COc2ccc(C(=O)N[C@@H]3CCCOC3)cc2-c2cncn21 [Compound 51A, (R)-5,5-Dimethyl-N-(tetrahydro-2H-pyran-3-yl)-5,6-dihydrobenzo[f]imidazo[1,5-d][1,4]oxazepine-10-carboxamide] | > 1000 | > 100 |
| O=C(Nc1ccc2c(c1)CCO2)c1ccc2c(c1)-c1cncn1CCO2 [Compound 9A, N-(2,3-Dihydrobenzofuran-5-yl)-5,6-dihydrobenzo[f]imidazo[1,5-d][1,4]oxazepine-10-carboxamide] | < 30 | 1 to 10 |
| Cn1ccc(NC(=O)c2ccc3c(c2)-c2cncn2CCO3)cc1=O [Compound 36A, N-(1-Methyl-2-oxo-1,2-dihydropyridin-4-yl)-5,6-dihydrobenzo[f]imidazo[1,5-d][1,4]oxazepine-10-carboxamide] | < 30 | < 1 |
| CS(=O)(=O)c1cccc(NC(=O)c2ccc3c(c2)-c2cncn2CCO3)c1 [Compound 18A, N-(3-(Methylsulfonyl)phenyl)-5,6-dihydrobenzo[f]imidazo[1,5-d][1,4]oxazepine-10-carboxamide] | < 30 | < 1 |

Now from value to compound:

| IC50 (human CD38) [nM] | IC50 (mouse CD38) [nM] | SMILES |
| --- | --- | --- |
| 100 to 1000 | 10 to 100 | COC(C)(C)CO[C@H]1CC[C@@H](NC(=O)c2ccc3c(c2)-c2cncn2CCO3)CC1 [Compound 128A, N-((1s,4s)-4-(2-Methoxy-2-methylpropoxy)cyclohexyl)-5,6-dihydrobenzo[f]imidazo[1,5-d][1,4]oxazepine-10-carboxamide] |
| < 30 | < 1 | O=C(N[C@H]1CC[C@H](OCCC(F)(F)F)CC1)c1ccc2c(c1)-c1cncn1CCO2 [Compound 90A, N-((1r,4r)-4-(3,3,3-Trifluoropropoxy)cyclohexyl)-5,6-dihydrobenzo[f]imidazo[1,5-d][1,4]oxazepine-10-carboxamide] |
| < 30 | < 1 | COCCO[C@H]1CC[C@H](NC(=O)c2cc(Cl)c3c(c2)-c2cncn2CCO3)CC1 [Compound 94A, 8-Chloro-N-((1r,4r)-4-(2-methoxyethoxy)cyclohexyl)-5,6-dihydrobenzo[f]imidazo[1,5-d][1,4]oxazepine-10-carboxamide] |
| 30 to 100 | 1 to 10 | COCCO[C@H]1CC[C@H](NC(=O)c2cc3c(c(C4CC4)c2)OCCn2cncc2-3)CC1 [Compound 50A, 8-Cyclopropyl-N-((1r,4r)-4-(2-methoxyethoxy)cyclohexyl)-5,6-dihydrobenzo[f]imidazo[1,5-d][1,4]oxazepine-10-carboxamide] |
| < 30 | < 1 | O=C(N[C@H]1CC[C@H](OCC(F)(F)F)CC1)c1cc(Cl)c2c(c1)-c1cncn1CCO2 [Compound 157A, 8-Chloro-N-((1r,4r)-4-(2,2,2-trifluoroethoxy)cyclohexyl)-5,6-dihydrobenzo[f]imidazo[1,5-d][1,4]oxazepine-10-carboxamide] |
| < 30 | 1 to 10 | CS(=O)(=O)CCCO[C@H]1CC[C@H](NC(=O)c2ccc3c(c2)-c2cncn2CCO3)CC1 [Compound 85A, N-((1r,4r)-4-(3-(Methylsulfonyl)propoxy)cyclohexyl)-5,6-dihydrobenzo[f]imidazo[1,5-d][1,4]oxazepine-10-carboxamide] |

From patent US20260138990A1, “TRICYCLIC FUSED IMIDAZOLE COMPOUNDS AS CD38 MODULATORS AND USES THEREOF” (AEOVIAN PHARMACEUTICALS, INC., priority 2023, published 2026)
